Test results from PMC11806654, “In Vitro Discovery of a Therapeutic Lead for HFMD From a Library Screen of Rocaglates/Aglains” (Journal of Medical Virology, 2025).
pEC50, pIC50: −log10 of the molar value. Entries after “also recorded” stand apart in the source; their conditions may differ. Where two headings read alike, the source gives them in different places.

Assays:
NSC-34 cells [1] = experiment: alamarBlue cytotoxicity screen; conditions: screen, 10 µM
EV-A71 [2] = experiment: High-throughput immunofluorescence antiviral screen in NSC-34 cells; assay type: cell-based, human enterovirus A71; conditions: for log reduction at 10 µM: Enterovirus A
SARS-CoV-2 = tested on: SARS-CoV-2; set-up: method as in PMID 39117283; conditions: cited from earlier work
NF-κB = conditions: read-out: NF-κB inhibition IC50; cited from earlier work
P-388 = tested on: P-388; set-up: method as in PMID 11170675; conditions: P-388 cell line; cited from earlier work
A549 = tested on: A549; set-up: method as in PMID 11170675; conditions: A549 cell line; cited from earlier work
EV-A71 [3] = experiment: Plaque-assay antiviral validation in NSC-34 cells; assay type: cell-based, human enterovirus A71; conditions: for Maximum viral titre reduction observed in dose response (Log): EV-A71 MOI 1, plaque assay; for pEC50: Enterovirus A, EVA71, EV-A71 MOI 1, plaque assay
Method: (§1) The complete cytotoxicity profiles of selected rocaglate/aglain derivatives against NSC‐34 or SH‐SY5Y cells were determined via the alamarBlue assay. Treated cells were incubated with the compounds for 12 h (NSC‐34) or 24 h (SH‐SY5Y). Negative and vehicle controls of this assay involved cells treated with fresh reduced serum DMEM and 0.1% DMSO, respectively. Cell viability in each treatment group was determined based on the intensity of colorimetric changes of each treatment group. […] Following incubation, infected cells were rinsed with sterile 1X PBS to remove any unbound virus particles. Specific concentrations of respective compounds were added to the cells in triplicates and incubated for 12 h (NSC‐34) or 24 h (SH‐SY5Y). At the end of the incubation period, two cycles of freeze‐thaws (−80°C; 37°C) were performed on the plates before collection of supernatants from each treatment or control group for virus titre measurement via plaque assay, as described.
(§2) (A) NSC‐34 cells were treated with various concentrations of respective compounds, in the presence or absence of EV‐A71 (MOI 1) infection. Resulting cell viability and virus yield from respective experimental setups were determined via alamarBlue and plaque assays, respectively. […] For (B), (C) and (D), virus titres were represented in bars and shown on the left‐hand y‐axis, whereas cell viabilities were presented in lines and illustrated on the right‐hand y‐axis.
(§3) Figure S1. Validation of cytotoxicity and antiviral profiles of compound 13 in NSC-34 cells. NSC-34 cells were treated with specific concentrations of compound 13 in the presence or absence of EV-A71 (MOI 1) infection. Resulting cell viability and virus yield from respective experimental setups were determined via alamarBlue^TM and plaque assays, respectively.

EV-A71 [4] = experiment: Time-of-addition / time-of-removal assay in SH-SY5Y cells; assay type: cell-based, human enterovirus A71; conditions: 8 μM
[5] = tested on: replication-defective EV-A71 replicon; experiment: Nano-luciferase replicon assay, replication-defective; conditions: SH-SY5Y cells, 24 h
Method: (§5) Using DharmaFECT 1 transfection reagent (Dharmacon), SH‐SY5Y cells seeded in 96‐well plates were transfected with either our established replication‐competent or replication‐defective EV‐A71 replicon construct [27, 29] and incubated for 4 h. At the end of incubation, the transfected cells were washed with sterile 1X PBS and treated with 0.1% DMSO or respective concentrations of test compound or positive controls. Guanidine hydrochloride (GuHCl) was used as positive control for the replication‐competent replicon, and cycloheximide (CHX) was used as positive control for the replication‐defective replicon. After 24 h, luciferase signal detection was subsequently performed using the Nano‐Glo kit (Promega, Madison, WI, USA) with a GLOMAX Multi‐Detection System microplate reader (Promega, Madison, WI, USA).
(§6) Guanidine hydrochloride (GuHCl), an eukaryotic RNA transcription inhibitor [38], and cycloheximide (CHX), an inhibitor of the elongation phase during RNA translation [39], were used as positive controls of respective assays. 0.1% DMSO served as the mock control group of respective assays. Luminescence readings generated by SH‐SY5Y cells transfected with either the established replication‐competent or replication‐defective replicons [27] were measured using a microplate reader and normalized against the DMSO control. […]

EV-A71 [6] = experiment: Plaque-assay antiviral dose response in SH-SY5Y cells; assay type: cell-based, human enterovirus A71
Method: as §1
(§4) (A) NSC‐34 cells were treated with various concentrations of respective compounds, in the presence or absence of EV‐A71 (MOI 1) infection. Resulting cell viability and virus yield from respective experimental setups were determined via alamarBlue and plaque assays, respectively. […]

[7] = alamarBlue cytotoxicity dose response, RD; assay type: cell-based; conditions: human, RD cells
[8] = alamarBlue cytotoxicity dose response, SH-SY5Y; assay type: cell-based; conditions: human, SH-SY5Y cells
Method: as §1, §4

[9] = tested on: positive- and negative-sense RNA of EV-A71; experiment: qRT-PCR strand-specific viral RNA quantification; assay type: cell-based, human enterovirus A71; conditions: 6 and 8 µM, 12 and 24 h.p.i., SH-SY5Y cells
EV-A71 [10] = experiment: Pre-treatment assay in SH-SY5Y cells; conditions: cells exposed to compound before infection
Method: (§7) The assays were performed in SH‐SY5Y cells in triplicates and resulting virus titres were quantified via plaque assays as previously described [27].
(§8) (A) Time‐of‐addition (TOA) and time‐of‐removal (TOR) of compound 13 (8 μM) at specific time points across the EV‐A71 replication cycle in SH‐SY5Y cells. For TOA, virus‐containing media was aspirated and replaced with compound 13 (8 μM) at 0, 2, 4, 6, 8, 10, 12 or 18 h postinfection (h.p.i.). […] At 24 h.p.i., supernatant from each treatment and control group was collected for virus quantification via plaque assay. Separately, SH‐SY5Y cells were infected with EV‐A71 (MOI 1) and treated with specific concentrations of compound 13 according to previously published experimental schemes for (B) pre‐treatment, (C) co‐treatment and (D) entry‐bypass assays [27]. At 24 h.p.i., supernatant was collected and used for virus yield measurement via plaque assay. Every assay was performed in triplicates with error bars representing standard deviation from the mean of triplicates. 0.1% DMSO served as the mock control group of respective assays.
(§9) In the pre‐treatment set‐up, host cells were first treated with the compound before virus challenge. […] Conversely, in the co‐treatment assay extracellular virions were treated with the compound before infecting the cells. […]

in vitro = conditions: mouse
EV-A71 [11] = experiment: Co-treatment assay in SH-SY5Y cells; conditions: compound present during infection
Method: as §7, §8, §9

CV-A16 = experiment: Pan-enterovirus plaque assay in SH-SY5Y cells, CV-A16; assay type: cell-based, Coxsackievirus A16
Method: as §1, §4

EV-A71 VP2 = experiment: Immunoblotting of viral protein; conditions: SH-SY5Y cells, versus vehicle control
Method: Cells from specific treatment and control groups were lysed with lysis buffer containing 1X Laemmli buffer. The resulting cell lysates were heated for 10 min at 95°C and subjected to SDS‐PAGE run in 10% acrylamide gels at 100 V for 2 h. The proteins were then transferred to a polyvinylidene fluoride membrane using the Trans‐Blot Turbo system (Bio‐Rad). Following a 20 min membrane blocking using 2% bovine serum albumin (BSA) dissolved in Tris‐buffered saline‐Tween 20 (TBST), specific viral protein and host loading controls were probed using the mouse antibodies targeting EV‐A71 VP2 (MAB979) and host β‐actin, respectively. After 1 h incubation with constant rocking at room temperature, the membranes were subjected to three rounds of washes using TBST before incubation at room temperature with horseradish peroxidase (HRP) conjugated goat anti‐mouse IgG secondary antibody (Thermo Fisher Scientific) for 1 h. Following three rounds of membrane washing with TBST, specific protein bands were developed using the Immobilon Western Chemiluminescent HRP substrate (Merck Millipore) for 3 min. […]
Lysates of EV‐A71 (MOI 1)‐infected SH‐SY5Y cells treated with specific concentrations of compound 13 were used for (A) qRT‐PCR‐based viral strand‐specific RNA quantification or (B) immunoblotting measurement of specific protein levels. […]

[12] = alamarBlue cytotoxicity dose response, HBMECs; assay type: cell-based; conditions: human, primary human brain microvascular endothelial cells (HBMECs)
Method: (§10) Evaluation of cytotoxicity and antiviral profiles of compound 13 in primary human brain microvascular endothelial cells (HBMECs). HBMECs were treated with specific concentrations of compound 13, in the presence or absence of EV-A71 (MOI 1) infection. Resulting cell viability and virus yield from respective experimental setups were determined via alamarBlue^TM and plaque assays, respectively.

EV-A71 [13] = experiment: Entry-bypass assay (viral RNA transfection) in SH-SY5Y cells; assay type: cell-based, human enterovirus A71
Method: Having excluded the virus attachment and entry steps, we deemed it likely that aglain 13 targets the early post‐entry stages of EV‐A71 life cycle involving the initial virus uncoating, viral RNA genome replication or protein production. As packaging and secretion of newly synthesized EV‐A71 virions from infected cells generally begin after 6 h.p.i., compound 13 is unlikely to interfere with the later phases of the virus life cycle (Figure 6A). The ability of compound 13 to interfere with EV‐A71 post‐entry events was further corroborated via our entry‐bypass assay wherein host cells were first transfected with in vitro isolated viral RNA before compound treatment (Figure 6D). […] As compound 13 targets the intracellular replication steps of EV‐A71, its effects on two primary pre‐packaging stages of the virus life cycle, namely viral RNA replication and protein production, were evaluated.

EV-A71 [14] = experiment: Plaque-assay antiviral dose response in primary HBMECs; assay type: cell-based, human enterovirus A71; conditions: Enterovirus A, EVA71
Method: as §10

EV-A71 [15] = experiment: Plaque-assay antiviral dose response in RD cells; assay type: cell-based, human enterovirus A71; conditions: Enterovirus A, EVA71
Method: as §1, §4

CV-A6 = experiment: Pan-enterovirus plaque assay in SH-SY5Y cells, CV-A6; assay type: cell-based
Method: as §1, §4

[16] = tested on: replication-competent EV-A71 replicon; experiment: Nano-luciferase replicon assay, replication-competent; conditions: SH-SY5Y cells, 24 h
Method: as §5, §6

[17] = alamarBlue cytotoxicity dose response, NSC-34; conditions: mouse
Method: as §1, §2, §3

[18] = alamarBlue cytotoxicity screen; conditions: mouse, NSC-34 cells
NSC-34 cells [19] = experiment: in vitro
Method: as §1, §2, §3

[20] = EVA71, screen, 10 µM, NSC-34 cells, EV-A71 MOI 1, 12 h, read-out: EV-A71 inhibition (logs), reduction in viral titre
[21] = EVA71, NSC-34, 12 h, read-out: EV-A71 inhibition (logs), reduction in viral titre, screen, 10 µM, NSC-34 cells, EV-A71 MOI 1, 12 h

CONC(=O)C1C(O)C2(O)c3c(OC)cc(OC)cc3OC2(c2ccc(OC)cc2)C1c1ccccc1 (stereo not shown) [Compound 3, CR‐1‐31b, reference compound]
host cell cytotoxicity in screen (NSC-34 cells [1]): unacceptably toxic; also recorded: high level of host cell cytotoxicity | log reduction at 10 µM (EV-A71 [2]; [20]): > 2 | antiviral activity in screen (EV-A71 [2]; screen, 10 µM, NSC-34 cells): appreciable antiviral activity

COc1ccc(C23Oc4cc(OC)cc(OC)c4C24NC(C)=NC4(O)C(C(=O)N(C)OC)C3c2ccccc2)cc1 (stereo not shown) [Compound 4]
inhibition of SARS-CoV-2 replication (SARS-CoV-2): inhibition of SARS‐CoV‐2 replication | host cell cytotoxicity in screen (NSC-34 cells [1]): unacceptably toxic; also recorded: high level of host cell cytotoxicity | log reduction at 10 µM (EV-A71 [2]; [21]): > 2 | antiviral activity in screen (EV-A71 [2]; screen, 10 µM, NSC-34 cells): appreciable antiviral activity

COC(=O)C1C(O)C2(O)c3c(OC)cc(OC)cc3OC2(c2ccc(OC)cc2)C1c1ccccc1 (stereo not shown) [Compound 6, reference compound]
log reduction at 10 µM (EV-A71 [2]; [20]): > 2 | antiviral activity in screen (EV-A71 [2]; screen, 10 µM, NSC-34 cells): appreciable antiviral activity

COc1ccc(C23Oc4cc(OC)cc(OC)c4C(O)(C(C(=O)N4CCCC4OC)C2c2ccccc2)C3O)cc1 (stereo not shown) [Compound 8, (‐)‐ponapensin]
pIC50 (NF-κB): 7.22

CC=C(C)C(=O)NC1CCCN1C(=O)C1C(c2ccccc2)C2(c3ccc(OC)cc3)Oc3cc(OC)cc(OC)c3C1(O)C2O (stereo not shown) [Compound 9, (‐)‐elliptifoline]
cytotoxic activity ED50 (P-388): 3.4 µg/mL | cytotoxic activity ED50 (A549): 18.9 µg/mL

COc1ccc(C23Oc4cc(OC)cc(OC)c4C(O)(C(c4c(F)c(F)c(F)c(F)c4F)C2c2ccccc2)C3O)cc1 (stereo not shown) [Compound 13]
downregulation of virus titer (EV-A71 [3]; 15 µM): approximately 2 logs | selectivity index (SI = CC50/EC50) (EV-A71 [3]; EV-A71): 6.1 | Maximum viral titre reduction observed in dose response (Log) (EV-A71 [3]): 2.53 Log | pEC50 (EV-A71 [3]): 5.45 | time of addition at which EV-A71 yields were suppressed (EV-A71 [4]; TOA): < 6 h.p.i. | viral load on time-of-removal (EV-A71 [4]; TOR, every time point up to 18 h.p.i.): continuous reduction in the viral load | luciferase signal, replication-defective replicon [5]: significantly decreased | downregulation of virus titer (EV-A71 [6]; 8 µM, SH-SY5Y cells): approximately 2 logs | pEC50 (EV-A71 [6]; Enterovirus A, EVA71, EV-A71 in SH-SY5Y cells): 5.27 | CC50 [7]: 11.2 µM | CC50 at 24 h [8]: 11 µM | positive- and negative-sense RNA of EV-A71 [9]: significant decrease | inhibition of EV-A71 replication, pre-treatment (EV-A71 [10]): ineffective inhibition; also recorded: no significant inhibition | Cell Viability (%) (NSC-34 cells [1]; 12 h): 91% | viability at 10 µM (in vitro; Cell Viability (%), screen, 10 µM, NSC-34 cells, 12 h): > 90% | inhibition of EV-A71 replication, co-treatment (EV-A71 [11]): ineffective inhibition; also recorded: no significant inhibition | infectious CV-A16 titers (CV-A16; 6 and 8 µM, SH-SY5Y cells): significantly reduced | pEC50 (CV-A16; Enterovirus A, CVA16, CV-A16 in SH-SY5Y cells): 6.10 | log reduction at 10 µM (EV-A71 [2]; [21]): 2.3 | downregulation of viral protein expression levels (VP2) (EV-A71 VP2): > 50% | CC50 [12]: 89.4 µM | suppression of virus yields, entry-bypass (EV-A71 [13]; 6 µM): 0.88 logs | suppression of virus yields, entry-bypass (EV-A71 [13]; 8 µM): 2.27 logs | pEC50 (EV-A71 [14]): 4.48 | pEC50 (EV-A71 [15]): 6.37 | infectious CV-A6 titers (CV-A6; 6 and 8 µM, SH-SY5Y cells): significantly reduced | pEC50 (CV-A6; Enterovirus A, CVA6, CV-A6 in SH-SY5Y cells): 6.29 | luciferase signal, replication-competent replicon [16]: significantly decreased | CC50 at 12 h [17]: 21.8 µM

COc1ccc(C23Oc4cc(OC)cc(OC)c4C(O)(C2=O)C(c2ccccc2)C3c2ccccc2)cc1 (stereo not shown) [Compound 14]
Maximum viral titre reduction observed in dose response (Log) (EV-A71 [3]): 0.82 Log | pEC50 (EV-A71 [3]): 4.72 | viability at 12 h, 10 µM [18]: 106% | log reduction at 10 µM (EV-A71 [2]; EVA71, NSC-34, 12 h, screen, 10 µM, NSC-34 cells, EV-A71 MOI 1, 12 h, read-out: EV-A71 inhibition (logs), reduction in viral titre): ~1 | EV-A71 inhibition (logs), reduction in viral titre (EV-A71 [2]; screen, 10 µM, NSC-34 cells, EV-A71 MOI 1, 12 h): 1.0 logs | CC50 at 12 h ([17]; NSC-34 cells): 42.6 µM

COC(=O)C1C(c2ccccc2)C2(c3ccc(Br)cc3)C(=O)C1(O)c1c(OC)cc(OC)cc1N2C (stereo not shown) [Compound 15]
Maximum viral titre reduction observed in dose response (Log) (EV-A71 [3]): 0.74 Log | pEC50 (EV-A71 [3]): 5.28 | viability at 12 h, 10 µM (in vitro): 91% | log reduction at 10 µM (EV-A71 [2]; [21]): 1.2 | CC50 at 12 h [17]: > 50 µM

COC(=O)C1C(c2ccccc2)C2(c3ccc(Br)cc3)C(O)C1(O)c1c(OC)cc(OC)cc1N2C (stereo not shown) [Compound 16]
Maximum viral titre reduction observed in dose response (Log) (EV-A71 [3]): 0.89 Log | pEC50 (EV-A71 [3]): 4.35 | viability at 12 h, 10 µM (in vitro): 81% | log reduction at 10 µM (EV-A71 [2]; [21]): 1.4 | antiviral activity in screen (EV-A71 [2]; screen, 10 µM, NSC-34 cells): showed antiviral activity | CC50 at 12 h [17]: > 50 µM

COC(=O)C1C(c2ccccc2)C2(c3ccc(OC)cc3)Oc3cc(OC)cc(OC)c3C1(O)C2O (stereo not shown) [Compound 17]
host cell cytotoxicity in screen (NSC-34 cells [1]): non‐cytotoxic | viability at 12 h, 10 µM (in vitro): 108% | log reduction at 10 µM (EV-A71 [2]; [21]): 0.1 | antiviral activity in screen (EV-A71 [2]; screen, 10 µM, NSC-34 cells): no measurable antiviral activity

COC(=O)C1C(c2ccccc2)C2(c3ccc(Br)cc3)Oc3cc(OC)cc(OC)c3C1(O)C2=O (stereo not shown) [Compound 18]
CC50 at 12 h [17]: 13.1 µM | host cell cytotoxicity in dose response (NSC-34 cells [19]): significant degree of cytotoxicity
